Source: patent US10722480B2, “Agent for controlling cells constituting cancer microenvironment or inflammatory microenvironment” (The University of Tokyo, priority 2015, dated 2020)

How the values were obtained:
[1] = target: T1, aldehyde dehydrogenase (ALDH) (Rattus norvegicus, UniProt P11884); conditions: Excerpt from Alcohol Clin Exp Res 1996.20.595-; read-out: ALDH inhibition; cited from earlier work
T1 sequence (P11884 20-519): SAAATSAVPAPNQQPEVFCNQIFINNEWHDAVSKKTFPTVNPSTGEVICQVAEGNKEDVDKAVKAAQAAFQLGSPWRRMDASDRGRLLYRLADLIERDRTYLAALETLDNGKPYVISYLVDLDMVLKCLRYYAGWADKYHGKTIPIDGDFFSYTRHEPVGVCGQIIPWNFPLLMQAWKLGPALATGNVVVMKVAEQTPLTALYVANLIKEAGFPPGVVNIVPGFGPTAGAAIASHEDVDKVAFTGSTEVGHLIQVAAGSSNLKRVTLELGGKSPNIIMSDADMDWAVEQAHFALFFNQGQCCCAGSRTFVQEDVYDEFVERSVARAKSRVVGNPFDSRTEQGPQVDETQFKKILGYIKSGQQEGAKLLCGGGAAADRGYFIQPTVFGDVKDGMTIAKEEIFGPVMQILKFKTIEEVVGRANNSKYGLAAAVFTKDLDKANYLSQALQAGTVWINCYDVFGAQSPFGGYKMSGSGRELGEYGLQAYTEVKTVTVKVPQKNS

B16F10 melanoma cells = experiment: WST-1 proliferation assay, B16F10 melanoma cells; type: cell-based; conditions: WST-1, 48 hours
Experimental: The cytotoxicity of inhibitors was tested by using LDH Cytotoxicity Detection Kit (TaKaRa) according to the manufacturer's instructions. Briefly, tumor cells were cultured in the presence or absence of an agent (disulfiram or 5FU) for 72 hours, and the culture supernatant was then collected and tested for the concentration of lactate dehydrogenase released from damaged cells. For measurement of cell proliferation, cells were incubated in a plate well together with an inhibitor for 48 hours. During the last 30 minutes, WST-1 (Dojindo Laboratories) was added to the culture liquid, and the absorbance of each well was measured at 450 nm versus 650 nm reference using EnVision (PerkinElmer) to detect the formazan level.

[2] = tested on: macrophages in tumor sites; experiment: Macrophage accumulation in tumor sites (lung metastasis model); type: in vivo, mouse; conditions: wild-type mice, vs solvent
Experimental: Lung cells of the lung metastasis model of wild-type mice described in the section 4 above or lung cells of the lung metastasis model of FNT-cKO mice and FNT^flox/flox mice described in the section 7(2) above were obtained from the right lower lobe by digestion with collagenase and DNase. The cells were washed with PBS supplemented with 2% fetal bovine serum, resuspended, and filtered through a 70-μm strainer. The Fc receptor was blocked by incubation with an anti-mouse CD16/32 antibody (BD biosciences), and thereafter the cells were stained with a fluorescently labeled antibody. Anti-mouse CD11b-Brilliant Violet 510, anti-mouse Ly6C-APC-Cy7, and anti-mouse Ly6G-Alexa Fluor 700 were purchased from Biolegend. The stained cells were analyzed using the Gallios flow cytometer (Beckman coulter). Each mouse was perfused with PBS, and the left lung was isolated. Optimal Cutting Temperature Compound (OCT) (Sakura Finetek) was injected from the trachea to embed the lung in OCT, and the lung was then frozen in liquid nitrogen. Fresh frozen sections with a thickness of 8 μm were prepared, and fixed with 4% paraformaldehyde-PBS. […] Fluorescence Images were obtained with an SP5 confocal microscope (Leica Microsystems).

## CCN(CC)C(=S)SSC(=S)N(CC)CC [DSF, disulfiram]
[1]
  IC50: 7.4 µM
B16F10 melanoma cells
  growth-inhibiting action on B16F10 melanoma cells: did not show any action
[2]
  accumulation of macrophages in tumor sites: reduced
